Data: publication PMC3145970, “Specific CLK Inhibitors from a Novel Chemotype for Regulation of Alternative Splicing” (Chemistry & Biology, 2011)
Where two headings read alike, the source gives them in different places.

Key:
Assay in all cases: Thermal stability shift assay
Assay type in all cases: binding
BMX = target: T1, BMX (Homo sapiens, UniProt P51813); details: read-out: Tm shift BMX
T1 sequence (P51813 1-675): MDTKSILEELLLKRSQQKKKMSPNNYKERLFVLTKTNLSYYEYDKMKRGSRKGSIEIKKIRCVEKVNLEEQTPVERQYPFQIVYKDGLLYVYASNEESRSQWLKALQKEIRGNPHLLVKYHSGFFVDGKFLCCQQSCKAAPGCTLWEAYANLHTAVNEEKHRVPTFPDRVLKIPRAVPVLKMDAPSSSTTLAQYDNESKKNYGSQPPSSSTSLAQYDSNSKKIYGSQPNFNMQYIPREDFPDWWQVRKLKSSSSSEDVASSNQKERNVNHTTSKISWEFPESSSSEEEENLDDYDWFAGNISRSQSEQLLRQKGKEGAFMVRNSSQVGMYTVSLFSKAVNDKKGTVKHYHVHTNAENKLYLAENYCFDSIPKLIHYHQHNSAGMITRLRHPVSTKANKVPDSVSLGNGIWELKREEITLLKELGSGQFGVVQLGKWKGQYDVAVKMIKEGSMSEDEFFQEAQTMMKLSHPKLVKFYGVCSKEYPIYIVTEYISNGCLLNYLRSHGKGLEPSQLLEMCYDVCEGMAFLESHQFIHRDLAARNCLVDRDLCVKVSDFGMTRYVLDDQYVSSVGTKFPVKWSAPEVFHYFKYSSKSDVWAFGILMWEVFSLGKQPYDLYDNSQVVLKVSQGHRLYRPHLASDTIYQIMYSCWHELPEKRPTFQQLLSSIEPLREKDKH
Summary of the method: (§1)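 Protein at 2 μM was heated with 10 μM inhibitor in 10 mM HEPES pH 7.5, 500 mM NaCl containing SyproOrange (1:1000 dilution); thermal denaturation was followed by fluorescence in a real-time PCR instrument.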

CaMKK1 = CaMKK1 (Homo sapiens, UniProt Q8N5S9); details: read-out: Tm shift CaMKK1
Sequence of CaMKK1 (Q8N5S9 whole entry): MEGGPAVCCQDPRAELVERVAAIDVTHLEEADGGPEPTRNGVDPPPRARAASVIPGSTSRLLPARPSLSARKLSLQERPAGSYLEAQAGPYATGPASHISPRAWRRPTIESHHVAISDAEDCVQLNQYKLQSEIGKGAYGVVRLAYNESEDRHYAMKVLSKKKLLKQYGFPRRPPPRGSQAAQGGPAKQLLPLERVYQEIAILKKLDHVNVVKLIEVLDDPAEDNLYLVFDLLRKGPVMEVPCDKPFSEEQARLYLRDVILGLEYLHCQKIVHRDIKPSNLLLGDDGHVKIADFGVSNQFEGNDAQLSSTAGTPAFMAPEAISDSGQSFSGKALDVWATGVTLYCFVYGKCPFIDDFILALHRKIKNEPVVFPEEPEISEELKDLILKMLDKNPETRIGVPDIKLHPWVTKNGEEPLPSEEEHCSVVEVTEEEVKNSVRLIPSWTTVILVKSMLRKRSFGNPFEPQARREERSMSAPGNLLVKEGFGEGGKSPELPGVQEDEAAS
Summary of the method: as §1

DCAMKL1 = target: T2, DCAMKL1 (Homo sapiens, UniProt O15075); details: read-out: Tm shift DCAMKL1
T2 construct: purchased in-house (SGC Oxford thermal shift panel)
T2 sequence (O15075 1-740): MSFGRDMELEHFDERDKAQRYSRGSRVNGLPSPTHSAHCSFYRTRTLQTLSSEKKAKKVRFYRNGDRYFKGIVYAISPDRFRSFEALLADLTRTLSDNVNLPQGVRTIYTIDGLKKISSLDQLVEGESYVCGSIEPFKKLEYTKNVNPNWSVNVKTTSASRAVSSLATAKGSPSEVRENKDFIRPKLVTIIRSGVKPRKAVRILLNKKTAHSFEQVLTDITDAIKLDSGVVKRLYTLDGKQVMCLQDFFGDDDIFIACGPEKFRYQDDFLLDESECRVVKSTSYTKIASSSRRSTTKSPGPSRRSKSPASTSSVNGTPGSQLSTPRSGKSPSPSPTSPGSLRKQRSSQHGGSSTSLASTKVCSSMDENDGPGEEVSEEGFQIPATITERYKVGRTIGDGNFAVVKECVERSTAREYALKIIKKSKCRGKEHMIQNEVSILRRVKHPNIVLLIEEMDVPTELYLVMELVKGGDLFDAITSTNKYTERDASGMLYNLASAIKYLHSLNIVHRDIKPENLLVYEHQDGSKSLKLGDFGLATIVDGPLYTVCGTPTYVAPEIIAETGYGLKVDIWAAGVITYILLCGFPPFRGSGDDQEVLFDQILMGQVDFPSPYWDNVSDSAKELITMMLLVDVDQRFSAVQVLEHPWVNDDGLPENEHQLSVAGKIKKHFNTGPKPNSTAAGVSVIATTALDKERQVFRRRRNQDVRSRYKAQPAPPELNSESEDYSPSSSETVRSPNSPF
Summary of the method: as §1

MST2 = target: T3, MST2 (Homo sapiens, UniProt Q13188); details: read-out: Tm shift MST2
T3 construct: purchased in-house (SGC Oxford thermal shift panel)
T3 sequence (Q13188 1-491): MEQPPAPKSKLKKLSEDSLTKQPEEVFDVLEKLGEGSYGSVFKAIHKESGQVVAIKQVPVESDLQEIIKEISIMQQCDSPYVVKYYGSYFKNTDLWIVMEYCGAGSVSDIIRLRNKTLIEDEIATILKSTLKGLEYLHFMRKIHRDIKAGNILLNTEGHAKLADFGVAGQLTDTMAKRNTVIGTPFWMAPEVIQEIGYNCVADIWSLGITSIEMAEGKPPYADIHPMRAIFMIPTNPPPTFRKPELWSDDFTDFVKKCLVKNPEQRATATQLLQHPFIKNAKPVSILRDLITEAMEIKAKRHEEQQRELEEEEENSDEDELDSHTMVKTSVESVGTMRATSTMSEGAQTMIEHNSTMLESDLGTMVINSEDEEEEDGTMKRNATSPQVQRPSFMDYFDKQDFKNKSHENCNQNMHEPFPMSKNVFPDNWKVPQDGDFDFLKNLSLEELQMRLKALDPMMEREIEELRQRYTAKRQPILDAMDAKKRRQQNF
Summary of the method: as §1

PKCz = target: T4, PKCz (Homo sapiens, UniProt Q05513); details: read-out: Tm shift PKCz
T4 sequence (Q05513 1-592): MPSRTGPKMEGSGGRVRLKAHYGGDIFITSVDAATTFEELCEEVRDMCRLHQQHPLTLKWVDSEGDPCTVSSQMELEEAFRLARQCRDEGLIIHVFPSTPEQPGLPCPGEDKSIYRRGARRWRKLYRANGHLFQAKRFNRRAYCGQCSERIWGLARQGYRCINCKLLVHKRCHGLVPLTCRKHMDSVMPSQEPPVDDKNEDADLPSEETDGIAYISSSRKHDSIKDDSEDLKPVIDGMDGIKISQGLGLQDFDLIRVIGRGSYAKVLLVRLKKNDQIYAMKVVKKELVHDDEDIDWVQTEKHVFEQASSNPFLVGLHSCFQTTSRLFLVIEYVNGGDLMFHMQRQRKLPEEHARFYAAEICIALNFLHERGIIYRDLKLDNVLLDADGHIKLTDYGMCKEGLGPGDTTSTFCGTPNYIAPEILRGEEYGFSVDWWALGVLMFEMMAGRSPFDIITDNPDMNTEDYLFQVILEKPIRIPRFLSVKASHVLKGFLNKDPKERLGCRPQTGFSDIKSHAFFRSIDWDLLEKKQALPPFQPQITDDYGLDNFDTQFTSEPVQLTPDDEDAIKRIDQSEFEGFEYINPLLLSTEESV
Summary of the method: as §1

RSK1-C = target: T5, RSK1-C (Homo sapiens, UniProt Q15418); details: read-out: Tm shift RSK1-C
T5 construct: RSK1-C 0.7 4.0 1.6 1.9 1.9 0.3 0.9
T5 sequence (Q15418 418-675 limits assumed): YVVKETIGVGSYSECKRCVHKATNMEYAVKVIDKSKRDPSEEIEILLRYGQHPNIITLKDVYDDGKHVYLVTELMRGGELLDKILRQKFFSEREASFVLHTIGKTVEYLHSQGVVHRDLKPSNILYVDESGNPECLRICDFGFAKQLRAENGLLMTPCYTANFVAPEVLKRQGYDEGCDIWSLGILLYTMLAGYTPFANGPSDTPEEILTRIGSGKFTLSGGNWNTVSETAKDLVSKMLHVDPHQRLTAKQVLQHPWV
Summary of the method: as §1

RSK3~C = target: T6, RSK3~C (Homo sapiens, UniProt Q15349); details: read-out: Tm shift RSK3~C
T6 construct: RSK3~C 4.5 8.9 0.7 0.4 0.5 0.1 0.4
T6 sequence (Q15349 415-672 limits assumed): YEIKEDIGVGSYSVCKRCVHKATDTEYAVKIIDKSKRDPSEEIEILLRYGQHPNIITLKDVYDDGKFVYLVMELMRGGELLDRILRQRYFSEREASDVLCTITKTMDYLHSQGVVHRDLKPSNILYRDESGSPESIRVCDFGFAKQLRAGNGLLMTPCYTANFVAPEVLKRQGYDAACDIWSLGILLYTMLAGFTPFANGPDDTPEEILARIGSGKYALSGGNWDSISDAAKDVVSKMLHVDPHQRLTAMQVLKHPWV
Summary of the method: as §1

ΔTm at 10 µM (BMX; inhibitor 10 μM) | ΔTm at 10 µM (CaMKK1; inhibitor 10 μM) | ΔTm at 10 µM (DCAMKL1; inhibitor 10 μM) | ΔTm at 10 µM (MST2; inhibitor 10 μM) | ΔTm at 10 µM (PKCz; inhibitor 10 μM) | ΔTm at 10 µM (RSK1-C; inhibitor 10 μM) | ΔTm at 10 µM (RSK3~C; inhibitor 10 μM) | Compound | ΔTm at 10 µM (BMX) | ΔTm at 10 µM (CaMKK1) | ΔTm at 10 µM (DCAMKL1) | ΔTm at 10 µM (MST2) | ΔTm at 10 µM (PKCz) | ΔTm at 10 µM (RSK1-C) | ΔTm at 10 µM (RSK3~C)
– | – | – | – | – | – | – | CCOC(=O)c1c(C(C#N)=CN)c2ccc(Cl)c(Cl)c2n1C (mixture of isomers) [KH-CB20, (E/Z)-Ethyl 3-(2-Amino-1-Cyanovinyl)-6,7-Dichloro-1-Methyl-1H-Indole-2-Carboxylate] | 0.2 °C | 0.6 °C | -0.1 °C | 0.4 °C | 0.1 °C | 1.9 °C | 0.4 °C
-0.2 °C | 0.3 °C | 0.7 °C | 0.3 °C | 0.4 °C | 0.3 °C | 0.1 °C | CCOC(=O)c1c(C(C#N)=CN(C)C)c2ccc(Cl)c(Cl)c2n1C (mixture of isomers) [compound 2, (E/Z)-Ethyl 6,7-Dichloro-3-[1-Cyano-2-(Dimethylamino)Vinyl]-1-Methyl-1H-Indole-2-Carboxylate] | – | – | – | – | – | – | –
– | – | – | – | – | – | – | CCOC(=O)c1c(/C(C#N)=C\N)c2ccc(Cl)c(Cl)c2n1C [KH-CB19, (E)-Ethyl 3-(2-Amino-1-Cyanovinyl)-6,7-Dichloro-1-Methyl-1H-Indole-2-Carboxylate] | 0.2 °C | -0.1 °C | -0.2 °C | 0.2 °C | -0.2 °C | 1.6 °C | 0.7 °C
-0.1 °C | 0.4 °C | 0 °C | -0.5 °C | 0.5 °C | 1.9 °C | 0.5 °C | Cn1c2c(Cl)c(Cl)ccc2c2c(C#N)c[nH]c(=O)c21 [compound 3, 7,8-Dichloro-9-Methyl-1-Oxo-2,9-Dihydro-1H-Pyrido[3,4-b]Indole-4-Carbonitrile] | – | – | – | – | – | – | –

Compound | ΔTm at 10 µM (BMX; inhibitor 10 μM) | ΔTm at 10 µM (CaMKK1; inhibitor 10 μM) | ΔTm at 10 µM (DCAMKL1; inhibitor 10 μM) | ΔTm at 10 µM (MST2; inhibitor 10 μM) | ΔTm at 10 µM (PKCz; inhibitor 10 μM) | ΔTm at 10 µM (RSK1-C; inhibitor 10 μM) | ΔTm at 10 µM (RSK3~C; inhibitor 10 μM) | ΔTm at 10 µM (BMX) | ΔTm at 10 µM (CaMKK1) | ΔTm at 10 µM (DCAMKL1) | ΔTm at 10 µM (MST2) | ΔTm at 10 µM (PKCz) | ΔTm at 10 µM (RSK1-C) | ΔTm at 10 µM (RSK3~C)
NC1=NC(=O)/C(=C2\CCNC(=O)c3[nH]c(Br)cc32)N1 [Hymenialdisine, hymenialdisine, reference compound] | -0.1 °C | 0.2 °C | 0.5 °C | 3.9 °C | -0.2 °C | 0.7 °C | 4.5 °C | – | – | – | – | – | – | –
